In PMC6037852, “Design of Diarylheptanoid Derivatives as Dual Inhibitors Against Class IIa Histone Deacetylase and β-amyloid Aggregation” (Frontiers in Pharmacology, 2018):

Key:
Aβ1-42 = target: T1, Aβ1-42 (Homo sapiens, UniProt P05067); experiment: Inhibition of Aβ1-42 self-aggregation, thioflavin-T (ThT) fluorescence assay; assay type: biochemical; conditions: 24 h; for IC50: read-out: Beta-Amyloid Aggregation IC50; for inhibition at 10 µM: single concentration of 10 μM, read-out: Beta-Amyloid Aggregation Inhibition (%)
T1 construct: Aβ1-42 peptides were purchased from Kelowna International Scientific Inc; purchased Kelowna International Scientific Inc
Description: Inhibition of Aβ1-42 self-aggregation was measured by thioflavin-T (ThT) fluorescence assay ([Hudson et al., 2009]). Aβ1-42 peptides were purchased from Kelowna International Scientific Inc. To avoid Aβ1-42 self-aggregation before the start of the experiment, Aβ1-42 peptides were dissolved in hexafluoroisopropanol (HFIP) to a concentration of 1 mM. The clear solution containing the dissolved peptide was then aliquoted in micro centrifuge tube. The solution was evaporated under vacuum to remove HFIP to give monomeric Aβ1-42. The monomeric Aβ1-42 was dissolved in NaOH(aq) (60 mM) to give a stock solution (1 mM). The Aβ1-42 stock solution was diluted with 50 mM phosphate buffer (containing 0.15 M NaCl, pH 7.4) before use. Fresh ThT stock solution was prepared by dissolving ThT (Sigma, T3516) in phosphate buffer and filtrated through […] Nylon syringe filter. The ThT stock solution and 400 mM ethylenediaminetetraacetic acid (EDTA) were diluted into the phosphate buffer to generate the working solution as background. A mixture of working solution (ThT final concentration: 10 μM), Aβ1-42 stock solution (Aβ1-42 final concentration: 10 μM) and the tested compounds were incubated on BioShake iQ ThermoMixer (37°C, 700 rpm) for 24 h. Fluorescence was measured by Victor 2X microplate spectrophotometer (excitation λ = 440 nm, emission λ = 486 nm), and adapted for 96-well microtiter plates. The fluorescence intensities were recorded and the percent inhibition due to the presence of the inhibitors were calculated by the following formula: (1 - IFi/IFc) × 100% where IFi and IFc were the fluorescence intensities obtained for Aβ1-42 in the presence and in the absence of inhibitors after subtracting the background, respectively. The IC50 values were calculated by the linear regression model of the data. All experiments were performed in triplicate.

[1] = tested on: primary rat mesencephalic neurons; set-up: method as in Luchtman et al., 2013; conditions: 100 μM; ref Luchtman et al., 2013; cited from earlier work
SH-SY5Y cells = conditions: 100 μM; ref Luchtman et al., 2013; cited from earlier work

T1 sequence (P05067 672-713 limits assumed): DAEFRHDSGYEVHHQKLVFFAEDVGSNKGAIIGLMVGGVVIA

| Compound | IC50 (Aβ1-42) [µM] | inhibition at 10 µM (Aβ1-42) [%] | Viability of primary rat mesencephalic neurons [1] | Cell viability of SH-SY5Y cells (SH-SY5Y cells) [%] |
| --- | --- | --- | --- | --- |
| O=c1c(O)c(-c2ccc(O)cc2O)oc2cc(O)cc(O)c12 [Morin, morin, reference compound] | 8.8 ± 0.7 | 56.9 ± 5.9 | – | – |
| O=C(CCCCCCC(=O)Nc1ccccc1)NO [SAHA, suberoylanilide hydroxamic acid, reference compound] | > 10 | -13.3 ± 1.8 | – | – |
| C[n+]1ccc(-c2ccccc2)cc1.[I-] [1-methyl-4-phenylpyridinium iodide] | – | – | roughly 75% | 80 |
